Our source for the IC50 values is ChEMBL document CHEMBL5726098, “Arylquinazolines” (2019).

As usually defined, the IC50 is the concentration that inhibits the measured activity by half.

Bounds are passed on as bounds.

The assay concerns the target DNA-dependent protein kinase catalytic subunit (Homo sapiens, UniProt P78527). Put plainly: DNA-PK Assay (Biochemical): The kinase assay was carried out in streptavidin-coated […] microtitre flashplates. […] The reaction was stopped using 50 μl/well of 200 mM EDTA. After incubation for a further 30 min at room temperature, the liquid was removed. Each well was washed three times with 100 μl of 0.9% saline solution. A nonspecific reaction (blank value) was determined using 10 μM of an innate kinase inhibitor. The radioactivity measurement was carried out using a TopCount. IC50 values were calculated in RS1.

DNA-dependent protein kinase catalytic subunit, sequence (P78527 whole entry): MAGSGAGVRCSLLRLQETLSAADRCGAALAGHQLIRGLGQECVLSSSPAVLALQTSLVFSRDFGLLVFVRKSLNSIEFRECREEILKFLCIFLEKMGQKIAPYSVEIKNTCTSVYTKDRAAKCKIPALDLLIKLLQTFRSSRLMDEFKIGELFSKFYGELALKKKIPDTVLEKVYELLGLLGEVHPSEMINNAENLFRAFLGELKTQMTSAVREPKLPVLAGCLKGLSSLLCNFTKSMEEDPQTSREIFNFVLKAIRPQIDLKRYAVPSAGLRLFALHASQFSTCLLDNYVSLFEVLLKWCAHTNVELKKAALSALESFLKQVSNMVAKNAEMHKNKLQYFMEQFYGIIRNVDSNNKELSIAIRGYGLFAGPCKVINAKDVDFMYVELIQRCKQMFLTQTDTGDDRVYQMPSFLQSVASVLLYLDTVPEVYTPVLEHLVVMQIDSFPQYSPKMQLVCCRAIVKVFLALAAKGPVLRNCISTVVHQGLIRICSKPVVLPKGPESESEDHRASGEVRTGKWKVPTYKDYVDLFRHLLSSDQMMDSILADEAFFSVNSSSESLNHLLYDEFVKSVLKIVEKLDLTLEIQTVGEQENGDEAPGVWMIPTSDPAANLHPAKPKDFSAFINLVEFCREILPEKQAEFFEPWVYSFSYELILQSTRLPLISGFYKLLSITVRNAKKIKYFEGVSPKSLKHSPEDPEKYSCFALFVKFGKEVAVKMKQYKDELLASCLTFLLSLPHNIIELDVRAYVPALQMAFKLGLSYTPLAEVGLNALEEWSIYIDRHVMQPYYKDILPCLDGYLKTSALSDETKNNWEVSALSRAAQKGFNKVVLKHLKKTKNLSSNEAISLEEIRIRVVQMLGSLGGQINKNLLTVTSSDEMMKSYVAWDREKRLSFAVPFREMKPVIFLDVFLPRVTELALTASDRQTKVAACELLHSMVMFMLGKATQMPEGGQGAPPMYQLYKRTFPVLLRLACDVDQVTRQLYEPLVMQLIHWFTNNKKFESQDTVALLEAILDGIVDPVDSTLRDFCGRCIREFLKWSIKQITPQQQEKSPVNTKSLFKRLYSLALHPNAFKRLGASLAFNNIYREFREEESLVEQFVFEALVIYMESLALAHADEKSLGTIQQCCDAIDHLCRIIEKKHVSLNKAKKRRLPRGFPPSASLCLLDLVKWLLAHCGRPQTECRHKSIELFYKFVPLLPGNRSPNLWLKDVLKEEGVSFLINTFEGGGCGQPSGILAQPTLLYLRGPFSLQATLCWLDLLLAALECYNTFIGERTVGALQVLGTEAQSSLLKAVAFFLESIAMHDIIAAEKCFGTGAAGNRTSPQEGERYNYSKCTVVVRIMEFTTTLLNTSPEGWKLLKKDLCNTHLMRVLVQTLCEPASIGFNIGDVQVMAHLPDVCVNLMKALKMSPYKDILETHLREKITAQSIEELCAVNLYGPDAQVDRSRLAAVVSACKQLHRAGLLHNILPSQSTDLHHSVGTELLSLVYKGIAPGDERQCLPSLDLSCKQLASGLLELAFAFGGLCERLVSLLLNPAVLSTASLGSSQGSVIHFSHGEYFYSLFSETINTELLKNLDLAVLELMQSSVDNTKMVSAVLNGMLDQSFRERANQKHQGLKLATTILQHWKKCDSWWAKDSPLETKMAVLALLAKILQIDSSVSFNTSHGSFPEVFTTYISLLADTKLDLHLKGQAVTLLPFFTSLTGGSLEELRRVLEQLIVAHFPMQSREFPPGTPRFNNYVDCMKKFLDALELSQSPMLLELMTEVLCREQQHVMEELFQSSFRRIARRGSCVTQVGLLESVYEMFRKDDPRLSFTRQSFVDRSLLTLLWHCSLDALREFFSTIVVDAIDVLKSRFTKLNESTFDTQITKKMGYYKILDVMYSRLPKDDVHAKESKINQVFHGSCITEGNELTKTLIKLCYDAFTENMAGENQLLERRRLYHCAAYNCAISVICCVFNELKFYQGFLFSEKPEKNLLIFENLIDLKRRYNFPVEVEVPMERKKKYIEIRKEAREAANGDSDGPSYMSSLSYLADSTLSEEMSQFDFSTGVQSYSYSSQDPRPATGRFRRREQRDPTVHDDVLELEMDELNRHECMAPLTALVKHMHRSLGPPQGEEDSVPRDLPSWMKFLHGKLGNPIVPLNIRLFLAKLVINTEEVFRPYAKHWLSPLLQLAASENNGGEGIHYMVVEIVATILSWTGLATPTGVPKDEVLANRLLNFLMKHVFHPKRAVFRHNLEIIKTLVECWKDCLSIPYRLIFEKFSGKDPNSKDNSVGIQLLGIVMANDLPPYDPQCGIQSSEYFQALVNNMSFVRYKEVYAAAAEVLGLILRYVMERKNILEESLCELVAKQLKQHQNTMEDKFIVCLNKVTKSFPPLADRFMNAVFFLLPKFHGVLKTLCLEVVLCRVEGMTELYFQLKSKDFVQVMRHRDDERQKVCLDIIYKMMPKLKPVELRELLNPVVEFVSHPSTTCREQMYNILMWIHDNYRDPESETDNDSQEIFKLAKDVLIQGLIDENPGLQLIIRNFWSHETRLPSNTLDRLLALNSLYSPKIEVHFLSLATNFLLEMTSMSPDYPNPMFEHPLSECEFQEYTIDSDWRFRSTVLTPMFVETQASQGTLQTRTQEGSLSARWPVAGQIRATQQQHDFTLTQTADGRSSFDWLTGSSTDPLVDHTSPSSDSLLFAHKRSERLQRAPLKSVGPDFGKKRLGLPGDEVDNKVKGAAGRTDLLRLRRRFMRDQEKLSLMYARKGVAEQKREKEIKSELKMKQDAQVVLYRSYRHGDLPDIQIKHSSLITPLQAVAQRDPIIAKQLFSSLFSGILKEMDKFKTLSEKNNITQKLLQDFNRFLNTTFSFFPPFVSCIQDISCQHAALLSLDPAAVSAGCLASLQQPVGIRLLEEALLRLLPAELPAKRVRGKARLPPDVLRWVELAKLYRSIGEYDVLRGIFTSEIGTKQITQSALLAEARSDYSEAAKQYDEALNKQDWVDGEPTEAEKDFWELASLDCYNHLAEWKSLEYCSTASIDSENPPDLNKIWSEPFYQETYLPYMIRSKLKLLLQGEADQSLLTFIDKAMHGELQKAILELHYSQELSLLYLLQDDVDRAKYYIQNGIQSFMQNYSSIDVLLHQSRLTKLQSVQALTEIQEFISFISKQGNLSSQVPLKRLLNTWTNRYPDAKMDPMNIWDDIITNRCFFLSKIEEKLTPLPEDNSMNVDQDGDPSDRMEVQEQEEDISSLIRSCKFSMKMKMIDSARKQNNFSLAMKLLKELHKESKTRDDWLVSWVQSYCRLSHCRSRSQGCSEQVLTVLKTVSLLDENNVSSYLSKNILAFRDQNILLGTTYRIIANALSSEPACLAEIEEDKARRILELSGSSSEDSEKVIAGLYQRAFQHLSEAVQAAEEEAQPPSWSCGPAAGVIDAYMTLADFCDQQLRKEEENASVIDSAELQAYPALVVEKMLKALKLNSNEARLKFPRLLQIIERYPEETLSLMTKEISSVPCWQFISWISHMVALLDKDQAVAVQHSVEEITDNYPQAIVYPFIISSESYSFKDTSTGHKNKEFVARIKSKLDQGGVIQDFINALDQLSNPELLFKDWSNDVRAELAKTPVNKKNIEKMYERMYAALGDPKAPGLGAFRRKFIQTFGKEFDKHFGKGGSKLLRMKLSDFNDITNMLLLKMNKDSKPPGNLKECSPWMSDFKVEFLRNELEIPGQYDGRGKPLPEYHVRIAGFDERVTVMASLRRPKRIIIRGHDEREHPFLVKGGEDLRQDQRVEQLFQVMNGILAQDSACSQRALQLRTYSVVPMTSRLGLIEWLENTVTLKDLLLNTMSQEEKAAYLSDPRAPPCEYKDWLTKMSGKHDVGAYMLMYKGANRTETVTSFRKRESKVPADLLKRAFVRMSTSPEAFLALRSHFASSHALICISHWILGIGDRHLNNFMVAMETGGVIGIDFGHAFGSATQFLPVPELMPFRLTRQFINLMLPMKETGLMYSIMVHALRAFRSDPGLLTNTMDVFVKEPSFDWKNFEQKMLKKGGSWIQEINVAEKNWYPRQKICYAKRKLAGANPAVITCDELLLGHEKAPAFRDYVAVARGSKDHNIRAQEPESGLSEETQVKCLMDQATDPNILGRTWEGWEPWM

As for `OCc1csc(C(O)c2cc(-c3ncnc4cc(N5C6CCC5COC6)ccc34)c(F)cc2Cl)n1` (configuration not stated), the IC50 was above 30 nM.

`NC(=O)C(c1cc(-c2ncnc3cc(N4CCOCC4)ccc23)c(F)cc1Cl)c1ncnn2cccc12` (configuration not stated): the IC50 is above 30 nM.
